Reference: patent US12281301B2, “Sequencing-based proteomics” (THE BROAD INSTITUTE, INC., priority 2018, dated 2025)

Test system: THP-1 monocytes
Test: PATTERNS protein quantification in tagged THP-1 monocyte library
Type: cell-based, human
Conditions: 6 hours treatment; out of 400 proteins represented; including FOS and EGR1
Procedure: RNP-mediated gene tagging in other cell lines. Non-confluent cells were trypsinized and/or washed and adjusted to a density 2E7/ml in warm OptiMEM. 125 μl of cell suspension were mixed with 125 μl OptiMEM containing 2.5 μg donor DNA, 2.5 μg Cas9 protein, and 250 ng sgRNA. The mix was incubated for 15 minutes at room temperature, and transferred to a 4 mm electroporation cuvette (BioRad). Cells were electroporated on a Gene Pulser Xcell Electroporation System (BioRad) using the following settings: 265V, 975 μF, and 720 Ohm. Cells were recovered immediately in 5 ml of pre-warmed growth medium. For library generation in THP-1 and SKMEL28 cells, the above protocol was scaled up 10-fold.
FACS sorting. […]
Analysis of Silent Barcode Sequencing data. Silent barcode bases were extracted from raw sequencing reads and were converted to a 28-bit integer value. Using a barcode lookup table, reads were collapsed into target loci, and a matrix of screening conditions vs. sorted bins was incremented for every successfully mapped read. Total read counts in every position of the matrix were normalized by the ratio of sorted cells (from control sort for simplification) divided by total reads with correctly mapped 10 bp reverse primer sequence, which helped to even out PCR saturation artifacts. […] All data were analyzed using a custom JavaScript-based analysis tool that is available online.

CCCCCCCCCCCCCC(=O)O[C@@H]1[C@@H](C)[C@@]2(O)[C@@H](C=C(CO)C[C@]3(O)C(=O)C(C)=C[C@@H]23)[C@@H]2C(C)(C)[C@]12OC(C)=O [PMA, Phorbol 12-Myristate 13-Acetate]
proteins whose levels were altered, by PATTERNS: four proteins
